ChEMBL document CHEMBL3576842, “Selenium-containing chrysin and quercetin derivatives: attractive scaffolds for cancer therapy” (J Med Chem, 2015)
pIC50: −log10 of the molar value. The source made the active and inactive calls. No cut-off for these calls is given here.

What was measured:
[1] = Antioxidant activity assessed as DPPH radical scavenging activity after 1 hr; format: physicochemical
[2] = Antioxidant activity assessed as DPPH radical scavenging activity at 1 mM after 1 hr; format: physicochemical; conditions: 1000 µM
[3] = Antioxidant activity assessed as glutathione peroxidase-like activity measured as time required to oxidize dithiothretol by 50% after addition of H2O2 at 3.24 umol; format: physicochemical
A-375 = experiment: Cytotoxicity against human A375 cells assessed as cell growth inhibition after 72 hrs by MTT assay; format: functional, cell-based; conditions: A-375, 72 h
HCT-15 = experiment: Cytotoxicity against human HCT15 cells assessed as cell growth inhibition after 72 hrs by MTT assay; format: functional, cell-based; conditions: HCT-15, 72 h
[4] = Cytotoxicity against human BxPC3 cells assessed as cell growth inhibition after 72 hrs by MTT assay; format: functional, cell-based; conditions: BXPC-3, 72 h
MCF7 [5] = experiment: Cytotoxicity against human MCF7 cells assessed as cell growth inhibition after 72 hrs by MTT assay; format: functional, cell-based; conditions: MCF7, 72 h
[6] = Cytotoxicity against human MCF7/ADR cells assessed as cell growth inhibition after 72 hrs by MTT assay; format: functional, cell-based; conditions: NCI/ADR-RES
A-431 [7] = experiment: Cytotoxicity against human A431 cells assessed as cell growth inhibition after 72 hrs by MTT assay; format: functional, cell-based; conditions: A-431, 72 h
A-431 [8] = experiment: Cytotoxicity against cisplatin-resistant human A431 cells assessed as cell growth inhibition after 72 hrs by MTT assay; format: functional, cell-based; conditions: A-431, 72 h
2008 = experiment: Cytotoxicity against human 2008 cells assessed as cell growth inhibition after 72 hrs by MTT assay; format: functional, cell-based; conditions: Homo sapiens, 2008, 72 h
[9] = Cytotoxicity against human C13 cells assessed as cell growth inhibition after 72 hrs by MTT assay; format: functional, cell-based; conditions: C13, 72 h
NCI/ADR-RES [10] = experiment: Resistance factor, ratio of IC50 for human MCF7/ADR cells to IC50 for human MCF7 cells; format: functional
A-431 [11] = experiment: Resistance factor, ratio of IC50 for cisplatin-resistant human A431 cells to IC50 for human A431 cells; format: functional
HEK293 [12] = experiment: Cytotoxicity against HEK293 cells assessed as cell growth inhibition after 72 hrs by MTT assay; format: cell-based; conditions: Homo sapiens, HEK293, 72 h
HEK293 [13] = experiment: Selectivity index, ratio of IC50 for HEK293 cells to IC50 for human A375 cells; format: functional
HEK293 [14] = experiment: Selectivity index, ratio of IC50 for HEK293 cells to IC50 for human HCT15 cells; format: functional
HEK293 [15] = experiment: Selectivity index, ratio of IC50 for HEK293 cells to IC50 for human BxPC3 cells; format: functional
HEK293 [16] = experiment: Selectivity index, ratio of IC50 for HEK293 cells to IC50 for human MCF7 cells; format: functional
NCI/ADR-RES [17] = experiment: Selectivity index, ratio of IC50 for HEK293 cells to IC50 for human MCF7/ADR cells; format: functional
HEK293 [18] = experiment: Selectivity index, ratio of IC50 for HEK293 cells to IC50 for human A431 cells; format: functional
HEK293 [19] = experiment: Selectivity index, ratio of IC50 for HEK293 cells to IC50 for cisplatin-resistant human A431 cells; format: functional
HEK293 [20] = experiment: Selectivity index, ratio of IC50 for HEK293 cells to IC50 for human 2008 cells; format: functional
C13 [21] = experiment: Selectivity index, ratio of IC50 for HEK293 cells to IC50 for human C13 cells; format: functional
MCF7 [22] = experiment: Anticlonogenic activity against human MCF7 cells assessed as inhibition of clonogenic expansion after 6 hrs; format: functional, cell-based
MCF7 [23] = experiment: Drug uptake in human MCF7 cells assessed as intracellular Se accumulation at 12.5 to 25 uM after 12 to 24 hrs by GF-AAS analysis; format: ADME, cell-based; conditions: mcf7, 25 µM
[24] = molecular target: T1, Thioredoxin reductase (Homo sapiens) (UniProt Q16881+Q9NNW7+Q86VQ6); experiment: Inhibition of thioredoxin reductase activity in human MCF7 cells after 24 hrs by DTNB reduction assay; format: cell-based
[25] = molecular target: T1, Thioredoxin reductase (Homo sapiens); experiment: Increase in thioredoxin reductase activity in HEK293 cells at 0.0625 to 0.625 uM after 24 hrs by DTNB reduction assay; format: cell-based; parameters: scale not given: the % may be the effect or the level left
[26] = molecular target: T2, Glutathione reductase, mitochondrial (Homo sapiens) (UniProt P00390); experiment: Effect on glutathione reductase activity in human MCF7 cells using GSSG as substrate at 1.25 to 20 uM after 24 hrs by spectrophotometric analysis; format: cell-based
T2 sequence (whole entry): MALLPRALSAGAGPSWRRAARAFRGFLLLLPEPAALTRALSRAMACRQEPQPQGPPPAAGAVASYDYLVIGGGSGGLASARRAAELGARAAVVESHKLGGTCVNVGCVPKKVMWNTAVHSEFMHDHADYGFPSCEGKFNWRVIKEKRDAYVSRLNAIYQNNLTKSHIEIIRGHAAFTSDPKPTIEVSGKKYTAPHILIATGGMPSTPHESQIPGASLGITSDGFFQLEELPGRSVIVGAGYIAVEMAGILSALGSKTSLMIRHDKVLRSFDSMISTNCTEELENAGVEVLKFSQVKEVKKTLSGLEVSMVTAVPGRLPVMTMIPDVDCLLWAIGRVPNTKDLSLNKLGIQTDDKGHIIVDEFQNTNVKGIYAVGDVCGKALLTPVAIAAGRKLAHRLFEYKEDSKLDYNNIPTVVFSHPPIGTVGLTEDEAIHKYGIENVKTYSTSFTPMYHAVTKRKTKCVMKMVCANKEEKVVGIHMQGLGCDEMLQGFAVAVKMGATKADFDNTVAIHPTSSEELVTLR

MCF7 [27] = experiment: Effect on glutathione peroxidase activity in human MCF7 cells using tert-butyl hydroperoxide and GSH as substrate at 1.25 to 20 uM after 24 hrs by spectrophotometric analysis; format: cell-based
MCF7 [28] = experiment: Decrease in total glutathione level in human MCF7 cells at IC50 after 48 hrs by spectrophotometric analysis; format: functional
MCF7 [29] = experiment: Decrease in total sulfhydryl gropus in human MCF7 cells at IC50 after 24 hrs by DTNB reduction assay; format: functional
MCF7 [30] = experiment: Induction of apoptosis in human MCF7 cells assessed as brightly stained nuclei, chromatin condensation and fragmentation at IC50 after 48 hrs by Hoechst 33258/PI fluorescent staining analysis; format: functional, cell-based
MCF7 [31] = experiment: Induction of apoptosis in human MCF7 cells assessed as caspase-3 activation using DEVD-AFC as substrate at IC50 after 48 hrs by spectrofluorimeter analysis; format: functional
MCF7 [32] = experiment: Induction of apoptosis in human MCF7 cells assessed as decrease in mitochondrial membrane potential at IC50 after 48 hrs by flow cytometry; format: functional
C13 [33] = experiment: Resistance factor, ratio of IC50 for cisplatin-resistant human C13 cells to IC50 for human 2008 cells; format: functional

| pIC50 [1] | SMILES | pIC50 (A-375) | pIC50 (HCT-15) | pIC50 [4] | pIC50 (MCF7 [5]) | pIC50 [6] | pIC50 (A-431 [7]) | pIC50 (A-431 [8]) | pIC50 2008 | pIC50 [9] | Ratio IC50 (A-431 [11]) | pIC50 (HEK293 [12]) | Ratio IC50 (HEK293 [13]) | Ratio IC50 (HEK293 [14]) | Ratio IC50 (HEK293 [15]) | Ratio IC50 (HEK293 [16]) | Ratio IC50 (NCI/ADR-RES [17]) | Ratio IC50 (HEK293 [18]) | Ratio IC50 (HEK293 [19]) | Ratio IC50 (HEK293 [20]) | other results |
| --- | --- | --- | --- | --- | --- | --- | --- | --- | --- | --- | --- | --- | --- | --- | --- | --- | --- | --- | --- | --- | --- |
| – | COc1cc(O)c2c(=O)c(OC)c(-c3ccc(OC)c(OC)c3)oc2c1 [RETUSIN] | 4.16 | 4.17 | < 4.00 | < 4.00 | < 4.00 | 4.24 | 4.08 | < 4.00 | < 4.00 | 1.4 | 3.85 | 1.6 | 1.6 | 1.6 | 1.6 | 1.6 | 1.6 | 1.6 | 1.6 | Activity [2]: 2.5%; Ratio IC50 (C13 [21]): 1.6 |
| 5.22 | O=C1O[C@H]([C@@H](O)CO)C(O)=C1O [ASCORBIC ACID] | – | – | – | – | – | – | – | – | – | – | – | – | – | – | – | – | – | – | – | – |
| 2.34 | Oc1cc(O)c2c(=S)cc(-c3ccccc3)oc2c1 | 4.44 | 4.25 | 4.19 | 4.15 | 4.14 | 4.18 | 4.01 | 4.39 | 4.23 | 1.6 | 4.17 | 1.2 | 1.2 | 1.2 | 1.2 | 1.2 | 1.2 | 1.2 | 1.2 | Ratio IC50 (NCI/ADR-RES [10]): 1; Ratio IC50 (C13 [33]): 1.4; Ratio IC50 (C13 [21]): 1.2 |

| SMILES | pIC50 [1] | pIC50 (A-375) | pIC50 (HCT-15) | pIC50 [4] | pIC50 (MCF7 [5]) | pIC50 [6] | pIC50 (A-431 [7]) | pIC50 (A-431 [8]) | pIC50 2008 | pIC50 [9] | Ratio IC50 (A-431 [11]) | pIC50 (HEK293 [12]) | Ratio IC50 (HEK293 [13]) | Ratio IC50 (HEK293 [14]) | Ratio IC50 (HEK293 [15]) | Ratio IC50 (HEK293 [16]) | Ratio IC50 (NCI/ADR-RES [17]) | Ratio IC50 (HEK293 [18]) | Ratio IC50 (HEK293 [19]) | Ratio IC50 (HEK293 [20]) | other results |
| --- | --- | --- | --- | --- | --- | --- | --- | --- | --- | --- | --- | --- | --- | --- | --- | --- | --- | --- | --- | --- | --- |
| COc1cc(O)c2c(=[Se])c(OC)c(-c3ccc(OC)c(OC)c3)oc2c1 | 4.13 | 5.66 | 5.65 | 5.62 | 5.51 | 5.47 | 5.51 | 5.42 | 5.68 | 5.64 | 1.2 | 4.76 | 5.1 | 5.1 | 5.1 | 5.1 | 5.1 | 5.1 | 5.1 | 5.1 | Activity [2]: 90.4%; Time [3]: 4.34 min; Ratio IC50 (NCI/ADR-RES [10]): 1.1; Ratio IC50 (C13 [21]): 5.1; inhibition (MCF7 [22]): Active; Drug uptake (MCF7 [23]): Active; inhibition [24]: Active; Activity [25]: 35%; Activity [26]: inactive; Activity (MCF7 [27]): inactive; inhibition (MCF7 [28]): Active; inhibition (INH) (MCF7 [29]): 60%; Activity (MCF7 [30]): Active; fold change (FC) (MCF7 [31]): 4; fold change (FC) (MCF7 [32]): 4 |
